Experimental data from ChEMBL document CHEMBL2429768, “Eco-friendly synthesis and antimicrobial activities of substituted-5-(1H-indol-3-yl)methylene)-2,2-dimethyl-1,3-dioxane-4,6-dione derivatives” (2013).
≈ marks a conversion by molar mass, not a printed value.

Assays:
Assay type in all cases: functional
Staphylococcus aureus [1] = assay: Antibacterial activity against Staphylococcus aureus ATCC 6538 at 50 ug/ml after 24 hrs by agar well diffusion method; conditions: ATCC 6538, 24 h, read-out: DIZ
Fusarium oxysporum [2] = assay: Antifungal activity against Fusarium oxysporum after 72 hrs by agar well diffusion method
Aspergillus flavus [3] = assay: Antifungal activity against Aspergillus flavus at 50 ug/ml after 72 hrs by agar well diffusion method; conditions: read-out: DIZ
Escherichia coli [4] = assay: Antibacterial activity against Escherichia coli ATCC 8739 at 200 ug/ml after 24 hrs by agar well diffusion method; conditions: ATCC 8739, 24 h, read-out: DIZ
Aspergillus niger [5] = assay: Antifungal activity against Aspergillus niger after 72 hrs by agar well diffusion method
Escherichia coli [6] = assay: Antibacterial activity against Escherichia coli ATCC 8739 at 500 ug/ml after 24 hrs by agar well diffusion method; conditions: ATCC 8739, 24 h, read-out: DIZ
Fusarium oxysporum [7] = assay: Antifungal activity against Fusarium oxysporum at 300 ug/ml after 72 hrs by agar well diffusion method; conditions: read-out: DIZ
Staphylococcus aureus [8] = assay: Antibacterial activity against Staphylococcus aureus ATCC 6538 at 200 ug/ml after 24 hrs by agar well diffusion method; conditions: ATCC 6538, 24 h, read-out: DIZ
Rhizoctonia solani [9] = assay: Antifungal activity against Rhizoctonia solani at 500 ug/ml after 72 hrs by agar well diffusion method; conditions: read-out: DIZ
Aspergillus flavus [10] = assay: Antifungal activity against Aspergillus flavus at 300 ug/ml after 72 hrs by agar well diffusion method; conditions: read-out: DIZ
Fusarium oxysporum [11] = assay: Antifungal activity against Fusarium oxysporum at 200 ug/ml after 72 hrs by agar well diffusion method; conditions: read-out: DIZ
Aspergillus niger [12] = assay: Antifungal activity against Aspergillus niger at 500 ug/ml after 72 hrs by agar well diffusion method; conditions: read-out: DIZ
Escherichia coli [13] = assay: Antibacterial activity against Escherichia coli ATCC 8739 at 50 ug/ml after 24 hrs by agar well diffusion method; conditions: ATCC 8739, 24 h, read-out: DIZ
Rhizoctonia solani [14] = assay: Antifungal activity against Rhizoctonia solani at 100 ug/ml after 72 hrs by agar well diffusion method; conditions: read-out: DIZ
Escherichia coli [15] = assay: Antibacterial activity against Escherichia coli ATCC 8739 at 100 ug/ml after 24 hrs by agar well diffusion method; conditions: ATCC 8739, 24 h, read-out: DIZ
Aspergillus niger [16] = assay: Antifungal activity against Aspergillus niger at 300 ug/ml after 72 hrs by agar well diffusion method; conditions: read-out: DIZ
Bacillus subtilis [17] = assay: Antibacterial activity against Bacillus subtilis at 200 ug/ml after 24 hrs by agar well diffusion method; conditions: read-out: DIZ
Rhizoctonia solani [18] = assay: Antifungal activity against Rhizoctonia solani at 50 ug/ml after 72 hrs by agar well diffusion method; conditions: read-out: DIZ
Rhizoctonia solani [19] = assay: Antifungal activity against Rhizoctonia solani at 300 ug/ml after 72 hrs by agar well diffusion method; conditions: read-out: DIZ
Klebsiella pneumoniae [20] = assay: Antibacterial activity against Klebsiella pneumoniae at 500 ug/ml after 24 hrs by agar well diffusion method; conditions: read-out: DIZ
Aspergillus niger [21] = assay: Antifungal activity against Aspergillus niger at 200 ug/ml after 72 hrs by agar well diffusion method; conditions: read-out: DIZ
Bacillus subtilis [22] = assay: Antibacterial activity against Bacillus subtilis after 24 hrs by agar well diffusion method
Fusarium oxysporum [23] = assay: Antifungal activity against Fusarium oxysporum at 50 ug/ml after 72 hrs by agar well diffusion method; conditions: read-out: DIZ
Escherichia coli [24] = assay: Antibacterial activity against Escherichia coli ATCC 8739 after 24 hrs by agar well diffusion method; conditions: ATCC 8739, 24 h
Aspergillus niger [25] = assay: Antifungal activity against Aspergillus niger at 50 ug/ml after 72 hrs by agar well diffusion method; conditions: read-out: DIZ
Klebsiella pneumoniae [26] = assay: Antibacterial activity against Klebsiella pneumoniae at 200 ug/ml after 24 hrs by agar well diffusion method; conditions: read-out: DIZ
Aspergillus flavus [27] = assay: Antifungal activity against Aspergillus flavus after 72 hrs by agar well diffusion method
Fusarium oxysporum [28] = assay: Antifungal activity against Fusarium oxysporum at 100 ug/ml after 72 hrs by agar well diffusion method; conditions: read-out: DIZ
Staphylococcus aureus [29] = assay: Antibacterial activity against Staphylococcus aureus ATCC 6538 after 24 hrs by agar well diffusion method; conditions: ATCC 6538, 24 h
Staphylococcus aureus [30] = assay: Antibacterial activity against Staphylococcus aureus ATCC 6538 at 300 ug/ml after 24 hrs by agar well diffusion method; conditions: ATCC 6538, 24 h, read-out: DIZ
Aspergillus flavus [31] = assay: Antifungal activity against Aspergillus flavus at 100 ug/ml after 72 hrs by agar well diffusion method; conditions: read-out: DIZ
Aspergillus niger [32] = assay: Antifungal activity against Aspergillus niger at 100 ug/ml after 72 hrs by agar well diffusion method; conditions: read-out: DIZ
Bacillus subtilis [33] = assay: Antibacterial activity against Bacillus subtilis at 500 ug/ml after 24 hrs by agar well diffusion method; conditions: read-out: DIZ
Staphylococcus aureus [34] = assay: Antibacterial activity against Staphylococcus aureus ATCC 6538 at 500 ug/ml after 24 hrs by agar well diffusion method; conditions: ATCC 6538, 24 h, read-out: DIZ
Klebsiella pneumoniae [35] = assay: Antibacterial activity against Klebsiella pneumoniae at 50 ug/ml after 24 hrs by agar well diffusion method; conditions: read-out: DIZ
Escherichia coli [36] = assay: Antibacterial activity against Escherichia coli ATCC 8739 at 300 ug/ml after 24 hrs by agar well diffusion method; conditions: ATCC 8739, 24 h, read-out: DIZ
Aspergillus flavus [37] = assay: Antifungal activity against Aspergillus flavus at 200 ug/ml after 72 hrs by agar well diffusion method; conditions: read-out: DIZ
Rhizoctonia solani [38] = assay: Antifungal activity against Rhizoctonia solani at 200 ug/ml after 72 hrs by agar well diffusion method; conditions: read-out: DIZ
Fusarium oxysporum [39] = assay: Antifungal activity against Fusarium oxysporum at 500 ug/ml after 72 hrs by agar well diffusion method; conditions: read-out: DIZ
Klebsiella pneumoniae [40] = assay: Antibacterial activity against Klebsiella pneumoniae at 300 ug/ml after 24 hrs by agar well diffusion method; conditions: read-out: DIZ
Klebsiella pneumoniae [41] = assay: Antibacterial activity against Klebsiella pneumoniae after 24 hrs by agar well diffusion method
Klebsiella pneumoniae [42] = assay: Antibacterial activity against Klebsiella pneumoniae at 100 ug/ml after 24 hrs by agar well diffusion method; conditions: read-out: DIZ
Bacillus subtilis [43] = assay: Antibacterial activity against Bacillus subtilis at 300 ug/ml after 24 hrs by agar well diffusion method; conditions: read-out: DIZ
Rhizoctonia solani [44] = assay: Antifungal activity against Rhizoctonia solani after 72 hrs by agar well diffusion method
Aspergillus flavus [45] = assay: Antifungal activity against Aspergillus flavus at 500 ug/ml after 72 hrs by agar well diffusion method; conditions: read-out: DIZ
Bacillus subtilis [46] = assay: Antibacterial activity against Bacillus subtilis at 100 ug/ml after 24 hrs by agar well diffusion method; conditions: read-out: DIZ
Bacillus subtilis [47] = assay: Antibacterial activity against Bacillus subtilis at 50 ug/ml after 24 hrs by agar well diffusion method; conditions: read-out: DIZ
Staphylococcus aureus [48] = assay: Antibacterial activity against Staphylococcus aureus ATCC 6538 at 100 ug/ml after 24 hrs by agar well diffusion method; conditions: ATCC 6538, 24 h, read-out: DIZ

Cn1cc(C=C2C(=O)OC(C)(C)OC2=O)c2cc([N+](=O)[O-])ccc21
zone of inhibition at 50 µg/mL (Staphylococcus aureus [1]): 6 mm
MIC (Fusarium oxysporum [2]): 35 µg/mL (≈ 106 µM)
zone of inhibition at 50 µg/mL (Aspergillus flavus [3]): 4 mm
zone of inhibition at 200 µg/mL (Escherichia coli [4]): 16 mm
MIC (Aspergillus niger [5]): 40 µg/mL (≈ 121 µM)
zone of inhibition at 500 µg/mL (Escherichia coli [6]): 30 mm
zone of inhibition at 300 µg/mL (Fusarium oxysporum [7]): 21 mm
zone of inhibition at 200 µg/mL (Staphylococcus aureus [8]): 14 mm
zone of inhibition at 500 µg/mL (Rhizoctonia solani [9]): 29 mm
zone of inhibition at 300 µg/mL (Aspergillus flavus [10]): 15 mm
zone of inhibition at 200 µg/mL (Fusarium oxysporum [11]): 16 mm
zone of inhibition at 500 µg/mL (Aspergillus niger [12]): 25 mm
zone of inhibition at 50 µg/mL (Escherichia coli [13]): 8 mm
zone of inhibition at 100 µg/mL (Rhizoctonia solani [14]): 12 mm
zone of inhibition at 100 µg/mL (Escherichia coli [15]): 13 mm
zone of inhibition at 300 µg/mL (Aspergillus niger [16]): 18 mm
zone of inhibition at 200 µg/mL (Bacillus subtilis [17]): 12 mm
zone of inhibition at 50 µg/mL (Rhizoctonia solani [18]): 7 mm
zone of inhibition at 300 µg/mL (Rhizoctonia solani [19]): 21 mm
zone of inhibition at 500 µg/mL (Klebsiella pneumoniae [20]): 31 mm
zone of inhibition at 200 µg/mL (Aspergillus niger [21]): 14 mm
MIC (Bacillus subtilis [22]): 30 µg/mL (≈ 90.8 µM)
zone of inhibition at 50 µg/mL (Fusarium oxysporum [23]): 7 mm
MIC (Escherichia coli [24]): 15 µg/mL (≈ 45.4 µM)
zone of inhibition at 50 µg/mL (Aspergillus niger [25]): 6 mm
zone of inhibition at 200 µg/mL (Klebsiella pneumoniae [26]): 18 mm
MIC (Aspergillus flavus [27]): 40 µg/mL (≈ 121 µM)
zone of inhibition at 100 µg/mL (Fusarium oxysporum [28]): 12 mm
MIC (Staphylococcus aureus [29]): 25 µg/mL (≈ 75.7 µM)
zone of inhibition at 300 µg/mL (Staphylococcus aureus [30]): 18 mm
zone of inhibition at 100 µg/mL (Aspergillus flavus [31]): 9 mm
zone of inhibition at 100 µg/mL (Aspergillus niger [32]): 10 mm
zone of inhibition at 500 µg/mL (Bacillus subtilis [33]): 23 mm
zone of inhibition at 500 µg/mL (Staphylococcus aureus [34]): 25 mm
zone of inhibition at 50 µg/mL (Klebsiella pneumoniae [35]): 9 mm
zone of inhibition at 300 µg/mL (Escherichia coli [36]): 20 mm
zone of inhibition at 200 µg/mL (Aspergillus flavus [37]): 12 mm
zone of inhibition at 200 µg/mL (Rhizoctonia solani [38]): 16 mm
zone of inhibition at 500 µg/mL (Fusarium oxysporum [39]): 29 mm
zone of inhibition at 300 µg/mL (Klebsiella pneumoniae [40]): 23 mm
MIC (Klebsiella pneumoniae [41]): 15 µg/mL (≈ 45.4 µM)
zone of inhibition at 100 µg/mL (Klebsiella pneumoniae [42]): 14 mm
zone of inhibition at 300 µg/mL (Bacillus subtilis [43]): 15 mm
MIC (Rhizoctonia solani [44]): 35 µg/mL (≈ 106 µM)
zone of inhibition at 500 µg/mL (Aspergillus flavus [45]): 23 mm
zone of inhibition at 100 µg/mL (Bacillus subtilis [46]): 9 mm
zone of inhibition at 50 µg/mL (Bacillus subtilis [47]): 4 mm
zone of inhibition at 100 µg/mL (Staphylococcus aureus [48]): 10 mm

CN[C@@H]1[C@H](O[C@H]2[C@H](O[C@H]3[C@H](O)[C@@H](O)[C@H](N=C(N)N)[C@@H](O)[C@@H]3N=C(N)N)O[C@@H](C)[C@]2(O)C=O)O[C@@H](CO)[C@H](O)[C@H]1O [STREPTOMYCIN]
zone of inhibition at 50 µg/mL (Staphylococcus aureus [1]): 10 mm
zone of inhibition at 200 µg/mL (Escherichia coli [4]): 23 mm
zone of inhibition at 500 µg/mL (Escherichia coli [6]): 36 mm
zone of inhibition at 200 µg/mL (Staphylococcus aureus [8]): 19 mm
zone of inhibition at 50 µg/mL (Escherichia coli [13]): 12 mm
zone of inhibition at 100 µg/mL (Escherichia coli [15]): 17 mm
zone of inhibition at 200 µg/mL (Bacillus subtilis [17]): 17 mm
zone of inhibition at 500 µg/mL (Klebsiella pneumoniae [20]): 37 mm
MIC (Bacillus subtilis [22]): 20 µg/mL (≈ 34.4 µM)
MIC (Escherichia coli [24]): 5 µg/mL (≈ 8.6 µM)
zone of inhibition at 200 µg/mL (Klebsiella pneumoniae [26]): 24 mm
MIC (Staphylococcus aureus [29]): 10 µg/mL (≈ 17.2 µM)
zone of inhibition at 300 µg/mL (Staphylococcus aureus [30]): 22 mm
zone of inhibition at 500 µg/mL (Bacillus subtilis [33]): 28 mm
zone of inhibition at 500 µg/mL (Staphylococcus aureus [34]): 31 mm
zone of inhibition at 50 µg/mL (Klebsiella pneumoniae [35]): 13 mm
zone of inhibition at 300 µg/mL (Escherichia coli [36]): 26 mm
zone of inhibition at 300 µg/mL (Klebsiella pneumoniae [40]): 28 mm
MIC (Klebsiella pneumoniae [41]): 5 µg/mL (≈ 8.6 µM)
zone of inhibition at 100 µg/mL (Klebsiella pneumoniae [42]): 18 mm
zone of inhibition at 300 µg/mL (Bacillus subtilis [43]): 20 mm
zone of inhibition at 100 µg/mL (Bacillus subtilis [46]): 14 mm
zone of inhibition at 50 µg/mL (Bacillus subtilis [47]): 9 mm
zone of inhibition at 100 µg/mL (Staphylococcus aureus [48]): 15 mm
